The target of one experiment is T1, human GlyT1c transporter (Homo sapiens, UniProt P48067).
T1 construct: expressed in transfected cells; host or cells: CHO cells (recombinant; line hGlyT1c_5_CHO is named for the uptake assay)
T1 sequence (P48067 1-706): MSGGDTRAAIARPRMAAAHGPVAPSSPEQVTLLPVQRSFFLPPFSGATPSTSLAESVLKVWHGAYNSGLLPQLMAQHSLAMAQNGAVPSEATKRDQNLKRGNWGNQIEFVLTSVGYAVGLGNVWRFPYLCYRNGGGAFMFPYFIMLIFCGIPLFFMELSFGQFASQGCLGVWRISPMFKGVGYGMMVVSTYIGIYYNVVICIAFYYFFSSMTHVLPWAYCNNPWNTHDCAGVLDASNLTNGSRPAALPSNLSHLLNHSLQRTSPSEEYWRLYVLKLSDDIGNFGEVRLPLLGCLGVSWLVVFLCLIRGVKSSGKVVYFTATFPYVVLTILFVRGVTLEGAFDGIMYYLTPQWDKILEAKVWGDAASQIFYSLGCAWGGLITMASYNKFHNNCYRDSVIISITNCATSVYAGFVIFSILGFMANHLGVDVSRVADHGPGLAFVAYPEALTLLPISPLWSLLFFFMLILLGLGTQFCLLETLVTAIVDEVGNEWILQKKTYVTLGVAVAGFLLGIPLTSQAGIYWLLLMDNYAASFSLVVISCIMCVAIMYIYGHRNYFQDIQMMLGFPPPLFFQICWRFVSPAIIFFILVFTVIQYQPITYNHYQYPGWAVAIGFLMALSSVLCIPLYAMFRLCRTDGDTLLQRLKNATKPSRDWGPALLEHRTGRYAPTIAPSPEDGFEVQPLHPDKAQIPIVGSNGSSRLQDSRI
Nature of the experiment: Radioligand binding assay using recombinant CHO cell membranes expressing human GlyT1. To be noted: radioligand binding to human GlyT1c transporter-expressing membranes. From the text:
2. Radioligand binding assays using recombinant CHO cell membranes expressing human GlyT1: […]
In general, Ki refers to the equilibrium dissociation constant of an inhibitor or competing ligand from its target. With `Cn1cnc(S(=O)(=O)N2C[C@@H](Nc3cc(C(F)(F)F)ccc3F)[C@H](c3ccccc3)C2)c1` (relative stereo) [Example 224, trans-N-[2-fluoro-5-(trifluoromethyl)phenyl]-1-[(1-methyl-1H-imidazol-4-yl)sulfonyl]-4-phenylpyrrolidin-3-amine], the Ki was at most 1000 nM.
The same measure, in the same setting: under `CCc1ccc(S(=O)(=O)N2CC(Nc3ccc(F)c(F)c3)C(c3ccccc3)C2)s1` (stereo not shown) [Example 492, N-(3,4-difluorophenyl)-1-[(5-ethylthiophen-2-yl)sulfonyl]-4-phenylpyrrolidin-3-amine] stands at least 10000 nM; under `CC(C)CCCCCNC(=O)[C@@H]1CN(S(=O)(=O)c2cn(C)cn2)C[C@H]1c1ccc(F)cc1` (relative stereo) [Example 643, Trans-4-(4-fluorophenyl)-N-(6-methylheptyl)-1-[(1-methyl-1H-imidazol-4-yl)sulfonyl]pyrrolidine-3-carboxamide], at most 10000 nM.
For the compound `Cn1cnc(S(=O)(=O)N2C[C@@H](NCc3ccc(C(F)(F)F)cc3Cl)[C@H](c3ccccc3Cl)C2)c1` (relative stereo) [Example 285, trans-4-(2-chlorophenyl)-N-[2-chloro-4-(trifluoromethyl)benzyl]-1-[(1-methyl-1H-imidazol-4-yl)sulfonyl]pyrrolidin-3-amine], the Ki was at most 100 nM.
Same read-out and setting: the same measure for `Cn1cnc(S(=O)(=O)N2C[C@H](NCC3(C(F)(F)F)CC3)[C@@H](c3ccc(F)cc3)C2)c1` [Example 386, (3R,4S)-4-(4-fluorophenyl)-1-[(1-methyl-1H-imidazol-4-yl)sulfonyl]-N-{[-(trifluoromethyl)cyclopropyl]methyl}pyrrolidin-3-amine]: at most 1000 nM.
On to `Cn1cnc(S(=O)(=O)N2C[C@@H](Nc3cc(C#N)ccc3F)[C@H](c3ccccc3)C2)c1` (relative stereo) [Example 76, 4-fluoro-3-({trans-1-[(1-methyl-1H-imidazol-4-yl)sulfonyl]-4-phenylpyrrolidin-3-yl}amino)benzonitrile], for which the inhibition constant (Ki) was at most 10000 nM.
The same measure, in the same setting: the same measure for `Cn1cnc(S(=O)(=O)N2C[C@H](Nc3cc(F)ccn3)[C@@H](c3ccc(F)cc3)C2)c1` [Example 736, 4-fluoro-N-{(3R,4S)-4-(4-fluorophenyl)-1-[(1-methyl-1H-imidazol-4-yl)sulfonyl]pyrrolidin-3-yl}pyridin-2-amine]: at most 1000 nM.
Still for that read-out and setting: the same measure for `Cn1cnc(S(=O)(=O)N2C[C@H](Nc3ccc(F)c(-c4cncnc4)c3)[C@@H](c3ccc(F)cc3)C2)c1` [Example 749, (3R,4S)-4-(4-fluorophenyl)-N-[4-fluoro-3-(pyrimidin-5-yl)phenyl]-1-[(1-methyl-1H-imidazol-4-yl)sulfonyl]pyrrolidin-3-amine]: at most 10 nM; for `Cn1cnc(S(=O)(=O)N2C[C@@H](Nc3ccc(C(F)(F)F)cc3)[C@H](c3ccccc3)C2)c1` (relative stereo) [Example 68, trans-1-[(1-methyl-1H-imidazol-4-yl)sulfonyl]-4-phenyl-N-[4-(trifluoromethyl)phenyl]pyrrolidin-3-amine]: at most 1000 nM; for `C=C(C)CO[C@@H]1CN(S(=O)(=O)c2cn(C)cn2)C[C@H]1Nc1cccc(Cl)c1` (relative stereo) [Example 403, Trans-N-(3-chlorophenyl)-1-[(1-methyl-1H-imidazol-4-yl)sulfonyl]-4-[(2-methylprop-2-en-1-yl)oxy]pyrrolidin-3-amine]: at most 100 nM.
Same read-out and setting: under `Cn1cnc(S(=O)(=O)N2C[C@@H](Nc3cccc(Cl)c3)[C@H](OCc3ccccc3)C2)c1` (relative stereo) [Example 400, Trans-4-(benzyloxy)-N-(3-chlorophenyl)-1-[(1-methyl-1H-imidazol-4-yl)sulfonyl]pyrrolidin-3-amine] stands at most 10000 nM; under `Cn1cnc(S(=O)(=O)N2C[C@@H](COc3cccc(F)c3)[C@H](c3ccc(F)cc3)C2)c1` (relative stereo) [Example 251, 4-{[trans-3-[(3-fluorophenoxy)methyl]-4-(4-fluorophenyl)pyrrolidin-1-yl]sulfonyl}-1-methyl-1H-imidazole], at most 100 nM.
As for `Cn1cnc(S(=O)(=O)N2C[C@H](NCCOc3ccc(C(C)(C)C)cc3)[C@@H](c3ccccc3)C2)c1` [Example 469, (3R,4S)-N-[2-(4-tert-butylphenoxy)ethyl]-1-[(1-methyl-1H-imidazol-4-yl)sulfonyl]-4-phenylpyrrolidin-3-amine], the inhibitory constant (Ki) is at most 1000 nM.
Turning to `Cc1nn(C(C)C)cc1S(=O)(=O)N1CC(Nc2ccc(F)c(F)c2)C(c2ccccc2)C1` (stereo not shown) [Example 475, N-(3,4-difluorophenyl)-1-{[3-methyl-1-(propan-2-yl)-1H-pyrazol-4-yl]sulfonyl}-4-phenylpyrrolidin-3-amine], the inhibition constant (Ki) was at most 10000 nM.
Consider `O=S(=O)(c1cccc2cnccc12)N1CC(Nc2ccc(F)c(F)c2)C(c2ccccc2)C1` (stereo not shown) [Example 515, N-(3,4-difluorophenyl)-1-(isoquinolin-5-ylsulfonyl)-4-phenylpyrrolidin-3-amine], for which the Ki is at most 10000 nM.
As for `Cn1cnc(S(=O)(=O)N2C[C@H](NC(=O)C3CCC(C(F)(F)F)CC3)[C@@H](c3ccc(F)cc3)C2)c1` (stereo partly drawn) [Example 696, N-{(3R,4S)-4-(4-fluorophenyl)-1-[(1-methyl-1H-imidazol-4-yl)sulfonyl]pyrrolidin-3-yl}-4-(trifluoromethyl)cyclohexanecarboxamide], the inhibition constant Ki is at most 10000 nM.
The same measure, in the same setting: the same measure for `Cn1cnc(S(=O)(=O)N2C[C@@H](Nc3cccc(F)c3)[C@H](c3ccccc3F)C2)c1` (relative stereo) [Example 199, trans-4-(2-fluorophenyl)-N-(3-fluorophenyl)-1-[(1-methyl-1H-imidazol-4-yl)sulfonyl]pyrrolidin-3-amine]: at most 1000 nM.
As for `Cn1cnc(S(=O)(=O)N2C[C@@H](C(=O)NCc3ccccn3)[C@H](c3ccc(F)cc3)C2)c1` (relative stereo) [Example 634, Trans-4-(4-fluorophenyl)-1-[(1-methyl-1H-imidazol-4-yl)sulfonyl] -N-(pyridin-2-ylmethyl)pyrrolidine-3-carboxamide], the inhibition constant (Ki) is at most 10000 nM.
Still for that read-out and setting: under `Cn1cnc(S(=O)(=O)N2C[C@@H](Nc3ccc(C(F)(F)F)c(Cl)c3)[C@H](c3ccc(F)cc3)C2)c1` (relative stereo) [Example 173, trans-N-[3-chloro-4-(trifluoromethyl)phenyl]-4-(4-fluorophenyl)-1-[(1-methyl-1H-imidazol-4-yl)sulfonyl]pyrrolidin-3-amine] stands at most 1000 nM.

Staying with this experiment, now noted: radioligand binding, recombinant CHO cell membranes expressing human GlyT1c.
As to `Cn1cc(S(=O)(=O)N2C[C@H](Nc3cccc(OC(F)(F)F)c3)[C@@H](c3ccc(F)cc3)C2)nn1` [Example 837, (3R,4S)-4-(4-fluorophenyl)-1-[(1-methyl-1H-1,2,3-triazol-4-yl)sulfonyl]-N-[3-(trifluoromethoxy)phenyl]pyrrolidin-3-amine], the Ki is at most 10 nM.
On to “2-[(1-methyl-1H-imidazol-4-yl)sulfonyl]-N-[4-(trifluoromethyl)pyridin-2-yl]-2,3,3a,8-tetrahydroindeno[1,2-c]pyrrol-8a(1H)-amine [Example 892]”, for which the Ki is at most 100 nM.
The same measure, in the same setting: under `CCCCCCNC1CN(S(=O)(=O)c2cn(C)cn2)CC1[C@@H]1CCCO1` (stereo partly drawn) [Example 821, N-hexyl-1-[(1-methyl-1H-imidazol-4-yl)sulfonyl]-4-[(2S)-tetrahydrofuran-2-yl]pyrrolidin-3-amine] stands at most 10000 nM.

The values are drawn from patent EP2970215B1, “PYRROLIDINE DERIVATIVES, PHARMACEUTICAL COMPOSITIONS CONTAINING THEM, AND THEIR USE IN THERAPY” (AbbVie Deutschland GmbH & Co. KG, priority 2013, dated 2014).
